From patent US20120142584A1, “NOVEL TRANSPORTER CONSTRUCTS AND TRANSPORTER CARGO CONJUGATE MOLECULES” (priority 2008, published 2012)

Assay: digestion of TAT derived transporter constructs in 10% and 50% human serum at 37° C.
Conditions: 10% and 50% human serum at 37° C. until complete degradation
Experimental: The table shown in FIG. 2 illustrates the amino acid sequences of these TAT derived transporter constructs with respect to their molecular weight (Mw) and pl-values (see FIG. 2). • The digestion was carried out in 10% and 50% human serum at 37° C. until complete degradation of these TAT derived transporters construct.

Q: For `N=C(N)NCCC[C@H](NC(=O)[C@H](CCCNC(=N)N)NC(=O)[C@H](CCCNC(=N)N)NC(=O)[C@H](CCC(N)=O)NC(=O)[C@H](CCCNC(=N)N)NC(=O)[C@H](CCCNC(=N)N)NC(=O)[C@H](CCCCN)NC(=O)[C@H](CCCCN)NC(=O)[C@@H](N)CCCNC(=N)N)C(=O)O` [L-TAT], which “degradation in human serum” value is on record?
A: The value was “degraded too early”.
